Values joined by “and” are separate entries in the source; they are usually repeats but may differ in a detail not shown here. Identical values can stand only once. Like-named read-outs stand apart in the source and are kept apart here.
Target: HIV-1LAI envelope gp120 (Human immunodeficiency virus type 1 group M subtype B, UniProt P03377)
Assay type: binding
Conditions: for Counts per 20′ Average-background: CCR5 18-mer scan, radiolabeled HIV-1LAI gp120; for Binding Results For Window Length (counts bound-background), 9 / Binding Results For Window Length (counts bound-background), 12 / Binding Results For Window Length (counts bound-background), 15 / Binding Results For Window Length (counts bound-background), 18: STRL33 amino terminus; for Binding Results For Window Length (counts bound-background), 9: 9-mer starting at the first residue of the printed sequence; for Binding Results For Window Length (counts bound-background), 12: 12-mer starting at the first residue of the printed sequence; for Binding Results For Window Length (counts bound-background), 15: 15-mer starting at the first residue of the printed sequence; for Binding Results For Window Length (counts bound-background), 18: 18-mer starting at the first residue of the printed sequence; for Relative % of Control: CXCR4 (1-18) alanine variants, mean of two syntheses and binding experiments ± average deviation, wild-type = 100%
[1] = STRL33 18-mer scan, background subtracted, first of two count columns
[2] = STRL33 18-mer scan, background subtracted, second of two count columns
[3] = Panel C, 15-mers and 18-mers of CD4, empty control 556
[4] = CXCR4 18-mer scan, background subtracted, empty control 0
[5] = CXCR4 18-mer scan, empty control 412
[6] = Panel F, sequential alanine replacements of CD4 polypeptides, duplicate series, empty control 569
[7] = Panel E, 9-mers and 12-mers of CD4, empty control 571
[8] = Panel B, 15-mers and 18-mers of CD4, empty control 575
[9] = Panel D, 9-mers and 12-mers of CD4, empty control […]

**Q.** What does the source list for “FLVNLPLADLVFVCTLPF [STRL33 segment 69-86]”?
**A.** radioactive counts recorded in twenty minutes [1]: 70.5 counts; radioactive counts recorded in twenty minutes [2]: 51.5 counts

**Q.** NQKKVEFKIDIVVLA was tested. Which “COUNTS of radiolabeled gp120 retained” value [3] did it give?
**A.** 860 counts

**Q.** How did the “radioactive counts recorded in twenty minutes” value (shortened to “radioactive counts recorded”) [4] turn out when “NKIFLPTIYSIIFLTGIV [CXCR4 segment 37-54]” was run?
**A.** 138 counts

**Q.** And the “radioactive counts recorded” value [5]?
**A.** 550 counts

**Q.** Which “COUNTS of radiolabeled gp120 retained” value [3] does the source give for PLAFTVEKLTGSGELWWQ here?
**A.** 650 counts

**Q.** How did the “COUNTS of radiolabeled gp120 retained” value [6] turn out when EEAQLLVFGLTANSD was run?
**A.** 18124 counts and 16296 counts

**Q.** For TVEKLTGSGELW, which “COUNTS of radiolabeled gp120 retained” value [7] is on record?
**A.** 573 counts

**Q.** Which “radioactive counts recorded” value [1] does the source give for “LVISIFYHKLQSLTDVFL [STRL33 segment 53-70]” here?
**A.** 1620.5 counts

**Q.** What about the “radioactive counts recorded” value [2] of the same sequence?
**A.** 1780.5 counts

**Q.** What does the source list for “IFYHKLQSLTDVFLVNLP [STRL33 segment 57-74]”?
**A.** radioactive counts recorded in twenty minutes [1]: 1275.5 counts; radioactive counts recorded in twenty minutes [2]: 1256.5 counts

**Q.** Which “radioactive counts recorded” value [4] does the source give for LTSVSRGSSLKILSKGKR here?
**A.** 183 counts

**Q.** What about the “radioactive counts recorded” value [5] of the same sequence?
**A.** 595 counts

**Q.** With EEVQLLVFGLTAASD as the sequence, how does the “COUNTS of radiolabeled gp120 retained” value [6] read?
**A.** 19200 counts and 19390 counts

**Q.** NYYTSEPCQKINVKQIAA [CCR5 segment 13-30] was tested. Which “Counts per 20′ Average-background” value (background subtracted) did it give?
**A.** 6 counts per 20′

**Q.** EEVQLLAFGLTANSD was tested. Which “COUNTS of radiolabeled gp120 retained” value [6] did it give?
**A.** 13317 counts and 16286 counts

**Q.** With “GEQVEFSFPLAFTVEKLTGSG [human CD4 216-236]” as the sequence, how does the “COUNTS of radiolabeled gp120 retained” value (Panel A, 21-mers of CD4, empty control 515 and 617) read?
**A.** 652 counts

**Q.** And the “number of radioactive decays (counts) counted” value (human CD4 21-mer scan, empty control 2075)?
**A.** 18549 counts

**Q.** How did the “Binding Results For Window Length (counts bound-background), 9” value (background subtracted) turn out when FSSFNDSSQEEHQAFLQF was run?
**A.** 249 counts

**Q.** And the “Binding Results For Window Length (counts bound-background), 12” value (background subtracted)?
**A.** 403 counts

**Q.** And the “Binding Results For Window Length (counts bound-background), 15” value (background subtracted)?
**A.** 361 counts

**Q.** What about the “Binding Results For Window Length (counts bound-background), 18” value (background subtracted) of the same sequence?
**A.** 3608 counts

**Q.** With HEDYGFSSFNDSSQEEHQ as the sequence, how does the “Binding Results For Window Length (counts bound-background), 9” value (background subtracted) read?
**A.** 729 counts

**Q.** And the “Binding Results For Window Length (counts bound-background), 12” value (background subtracted)?
**A.** 1077 counts

**Q.** And the “Binding Results For Window Length (counts bound-background), 15” value (background subtracted)?
**A.** 947 counts

**Q.** And the “Binding Results For Window Length (counts bound-background), 18” value (background subtracted)?
**A.** 537 counts

**Q.** For EFKIDIVVLAFQ, which “COUNTS of radiolabeled gp120 retained” value [7] is on record?
**A.** 659 counts

**Q.** With FTVEKLTGSGELWWQAER as the sequence, how does the “COUNTS of radiolabeled gp120 retained” value [3] read?
**A.** 1143 counts

**Q.** LVFGLTANSDTHLLQ was tested. Which “COUNTS of radiolabeled gp120 retained” value [8] did it give?
**A.** 609 counts

**Q.** How did the “COUNTS of radiolabeled gp120 retained” value [8] turn out when SDTYICEVEDQKEEVQLL was run?
**A.** 870 counts

**Q.** How did the “radioactive counts recorded” value [4] turn out when “AQNALTSVSRGSSLKILS [CXCR4 segment 313-330]” was run?
**A.** 147 counts

**Q.** And the “radioactive counts recorded” value [5]?
**A.** 559 counts

**Q.** Which “COUNTS of radiolabeled gp120 retained” value [3] does the source give for IVVLAFQKASSIVYKKEG here?
**A.** 531 counts

**Q.** Which “Counts per 20′ Average-background” value (background subtracted) does the source give for MLVILILINCKRLKSMTD [CCR5 segment 49-66] here?
**A.** 84 counts per 20′

**Q.** Which results are given for “GSGDYDSMKEPCFREENA [CXCR4 segment 17-34]”?
**A.** radioactive counts recorded in twenty minutes [4]: −28 counts; radioactive counts recorded in twenty minutes [5]: 384 counts

**Q.** How did the “Counts per 20′ Average-background” value (background subtracted) turn out when NCKRLKSMTDIYLLNLAI [CCR5 segment 57-74] was run?
**A.** 25 counts per 20′

**Q.** With “GLVGNSLVLVISIFYHKL [STRL33 segment 45-62]” as the sequence, how does the “radioactive counts recorded” value [1] read?
**A.** 164.5 counts

**Q.** And the “radioactive counts recorded” value [2]?
**A.** 95.5 counts

**Q.** Which “Relative % of Control” value does the source give for “AEGISIYTSDNYTEEMGS [CXCR4 (1-18) variant M1A]” here?
**A.** 118 ± 18%

**Q.** How did the “COUNTS of radiolabeled gp120 retained” value [9] turn out when TYICEVEDQKEE was run?
**A.** 818 counts

**Q.** How did the “COUNTS of radiolabeled gp120 retained” value [9] turn out when EVQLLVFGL was run?
**A.** 2146 counts

**Q.** EEVALLVFGLTANSD was tested. Which “COUNTS of radiolabeled gp120 retained” value [6] did it give?
**A.** 10890 counts and 13415 counts

**Q.** For EQVEFSFPL, which “COUNTS of radiolabeled gp120 retained” value [7] is on record?
**A.** 1032 counts

**Q.** QKKVEFKID was tested. Which “COUNTS of radiolabeled gp120 retained” value [7] did it give?
**A.** 575 counts

**Q.** For IVVLAFQKASSIVYK, which “COUNTS of radiolabeled gp120 retained” value [3] is on record?
**A.** 783 counts

**Q.** Which “COUNTS of radiolabeled gp120 retained” value [9] does the source give for LVFGLTANSDTH here?
**A.** 586 counts

**Q.** For VISLLVSLPQIIYGNVFN, which “radioactive counts recorded” value [1] is on record?
**A.** −60.5 counts

**Q.** And the “radioactive counts recorded” value [2]?
**A.** −127.5 counts

**Q.** How did the “COUNTS of radiolabeled gp120 retained” value [6] turn out when TALLQGQSLTLTLES was run?
**A.** 6931 counts and 5012 counts

**Q.** How did the “COUNTS of radiolabeled gp120 retained” value [7] turn out when VLAFQKASS was run?
**A.** 466 counts

**Q.** VVLAFQKASSIV was tested. Which “COUNTS of radiolabeled gp120 retained” value [7] did it give?
**A.** 567 counts

**Q.** How did the “COUNTS of radiolabeled gp120 retained” value [9] turn out when YICEVEDQKEEV was run?
**A.** 734 counts

**Q.** With MEGISIYTSDNYAEEMGS as the sequence, how does the “Relative % of Control” value read?
**A.** 70 ± 6%

**Q.** For QNQKKVEFKIDIVVL, which “COUNTS of radiolabeled gp120 retained” value [3] is on record?
**A.** 636 counts

**Q.** Which results are given for “AIVHATNSQRPRKLLAEK [CXCR4 segment 137-154]”?
**A.** radioactive counts recorded in twenty minutes [4]: 73 counts; radioactive counts recorded in twenty minutes [5]: 485 counts

**Q.** Which “radioactive counts recorded” value [1] does the source give for “MPFNLMKFIRSTHWEYYA [STRL33 segment 245-262]” here?
**A.** 2171.5 counts

**Q.** What about the “radioactive counts recorded” value [2] of the same sequence?
**A.** 2182.5 counts

**Q.** With NSDTHLLQGQSL as the sequence, how does the “COUNTS of radiolabeled gp120 retained” value [9] read?
**A.** 585 counts

**Q.** Which results are given for “FACWLPYYIGISIDSFIL [CXCR4 segment 249-266]”?
**A.** radioactive counts recorded in twenty minutes [4]: 202 counts; radioactive counts recorded in twenty minutes [5]: 614 counts

Reference: patent US20030068615A1, “Polypeptides that bind HIV gp120 and related nucleic acids, antibodies, compositions, and methods of use” (priority 1999, published 2003)
